Assay results from patent US11242334B2, “Heterocyclic compounds as kinase inhibitors, compositions comprising the heterocyclic compound, and methods of use thereof” (JS INNOPHARM (SHANGHAI) LTD, priority 2017, dated 2022).

Legend:
human ERK2 = biological target: T1, human ERK2 (Homo sapiens, UniProt P28482); experiment: LanthaScreen TR-FRET enzymatic assay, ERK2; conditions: IC50 values of ERK2 biochemical activity; 5 μM ATP, 400 nM ATF2-GFP substrate
T1 construct: recombinantly expressed as GST-tagged full-length protein purified from E. coli; GST; purchased Invitrogen PV3311; host or cells: E. coli
Outline: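 GST-tagged full-length ERK2 from E. coli, activated with MAP2K1, was used at 20 ng/ml with 400 nM GFP-ATF2(19-96) and 5 μM ATP (near Km). Compound was pre-incubated 15 min, and the reaction ran 1 h at room temperature. pThr71 was detected by Tb-antibody TR-FRET ratio, with IC50 from sigmoid fitting against 1% DMSO.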

Colo205 cell line = experiment: Colo205 cell proliferation assay (MTT assay, WST-8 readout); assay type: cell-based; conditions: Homo sapiens; IC50 values of growth inhibition in Colo 205 cells; 72 hours
Outline: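 Colo205 cells were seeded at 5,000 cells/well in RPMI-1640 with 10% FBS and attached for 24 h at 37° C. They were then exposed for 72 h to compound at final 50 μM to 0.005 μM (0.5% DMSO). Viability was read as WST-8 absorbance at 450 nm after 2 h, and IC50 of growth inhibition was determined.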

T1 sequence (P28482 whole entry): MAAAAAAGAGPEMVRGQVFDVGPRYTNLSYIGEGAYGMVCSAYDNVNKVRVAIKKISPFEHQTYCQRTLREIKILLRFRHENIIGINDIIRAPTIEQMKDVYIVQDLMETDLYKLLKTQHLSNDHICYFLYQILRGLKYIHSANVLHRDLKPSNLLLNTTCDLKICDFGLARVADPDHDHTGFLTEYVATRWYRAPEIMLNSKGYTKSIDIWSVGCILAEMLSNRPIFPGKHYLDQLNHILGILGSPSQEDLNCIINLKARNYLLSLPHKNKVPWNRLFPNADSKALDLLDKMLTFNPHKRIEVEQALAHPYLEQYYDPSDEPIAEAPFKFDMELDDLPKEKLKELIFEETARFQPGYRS

Compound | IC50 (human ERK2) [nM] | IC50 (Colo205 cell line) [nM]
Cc1cc(-c2n[nH]c3ncc(-c4ccn([C@H](CO)c5ccc(F)c(Cl)c5)c(=O)c4)cc23)ccn1 [Example 101, (S)-1-(1-(3-chloro-4-fluorophenyl)-2-hydroxyethyl)-4-(3-(2-methylpyridin-4-yl)-1H-pyrazolo[3,4-b]pyridin-5-yl)pyridin-2(1H)-one] | < 10 | ≤ 500
CCOc1ccc(-c2n[nH]c3ccc(-c4ccn([C@H](CO)c5cc(F)cc(Br)c5)c(=O)c4)cc23)cn1 [Example 102, (S)-1-(1-(3-bromo-5-fluorophenyl)-2-hydroxyethyl)-4-(3-(6-ethoxypyridin-3-yl)-1H-indazol-5-yl)pyridin-2(1H)-one] | < 10 | ≤ 500
Cc1cc(-c2n[nH]c3ncc(-c4ccn(Cc5ccnc(C(F)(F)F)c5)c(=O)c4)cc23)ccn1 [Example 104, 4-(3-(2-methylpyridin-4-yl)-1H-pyrazolo[3,4-b]pyridin-5-yl)-1-((2-(trifluoromethyl)pyridin-4-yl)methyl)pyridin-2(1H)-one] | 10 to 50 | 500 to 1000
Cc1cc(-c2n[nH]c3ncc(-c4ccn(C(C)c5cc(F)cc(Br)c5)c(=O)c4)cc23)ccn1 (stereo not drawn) [Example 105, 1-(1-(3-bromo-5-fluorophenyl)ethyl)-4-(3-(2-methylpyridin-4-yl)-1H-pyrazolo[3,4-b]pyridin-5-yl)pyridin-2(1H)-one] | < 10 | 500 to 1000
Cn1cc(-c2n[nH]c3ncc(-c4ccn([C@H](CO)c5cc(F)cc(Br)c5)c(=O)c4)cc23)cn1 [Example 106, (S)-1-(1-(3-bromo-5-fluorophenyl)-2-hydroxyethyl)-4-(3-(1-methyl-1H-pyrazol-4-yl)-1H-pyrazolo[3,4-b]pyridin-5-yl)pyridin-2(1H)-one] | < 10 | 500 to 1000
O=c1cc(-c2ccc3[nH]nc(-c4cnn(CCO)c4)c3c2)ccn1[C@H](CO)c1ccc(F)c(Cl)c1 [Example 109, (S)-1-(1-(3-chloro-4-fluorophenyl)-2-hydroxyethyl)-4-(3-(1-(2-hydroxyethyl)-1H-pyrazol-4-yl)-1H-indazol-5-yl)pyridin-2(1H)-one] | < 10 | > 5000
CCOc1ccc(-c2n[nH]c3ncc(-c4ccn([C@H](CO)c5cc(F)cc(Br)c5)c(=O)c4)cc23)cn1 [Example 110, (S)-1-(1-(3-bromo-5-fluorophenyl)-2-hydroxyethyl)-4-(3-(6-ethoxypyridin-3-yl)-1H-pyrazolo[3,4-b]pyridin-5-yl)pyridin-2(1H)-one] | < 10 | 500 to 1000
O=c1cc(-c2ccc3[nH]nc(-c4ccc(F)cc4)c3c2)ccn1[C@H](CO)c1cc(F)cc(Br)c1 [Example 111, (S)-1-(1-(3-bromo-5-fluorophenyl)-2-hydroxyethyl)-4-(3-(4-fluorophenyl)-1H-indazol-5-yl)pyridin-2(1H)-one] | < 10 | ≤ 500
Cn1cc2cc(-c3n[nH]c4ccc(-c5ccn([C@H](CO)c6cc(F)cc(Br)c6)c(=O)c5)cc34)ccc2n1 [Example 113, (S)-1-(1-(3-bromo-5-fluorophenyl)-2-hydroxyethyl)-4-(2′-methyl-1H,2′H-[3,5′-biindazol]-5-yl)pyridin-2(1H)-one] | < 10 | ≤ 500
O=c1cc(-c2ccc3[nH]nc(-c4ccc5ncsc5c4)c3c2)ccn1[C@H](CO)c1cc(F)cc(Br)c1 [Example 114, (S)-4-(3-(benzo[d]thiazol-6-yl)-1H-indazol-5-yl)-1-(1-(3-bromo-5-fluorophenyl)-2-hydroxyethyl)pyridin-2(1H)-one] | < 10 | ≤ 500
COc1ccc(-c2n[nH]c3ccc(-c4ccn(Cc5ccnc(C(F)(F)F)c5)c(=O)c4)cc23)cn1 [Example 116, 4-(3-(6-methoxypyridin-3-yl)-1H-indazol-5-yl)-1-((2-(trifluoromethyl)pyridin-4-yl)methyl)pyridin-2(1H)-one] | < 10 | 1000 to 5000
O=c1cc(-c2ccc3[nH]nc(-c4ccc(F)cc4)c3c2)ccn1Cc1ccnc(C(F)(F)F)c1 [Example 117, 4-(3-(4-fluorophenyl)-1H-indazol-5-yl)-1-((2-(trifluoromethyl)pyridin-4-yl)methyl)pyridin-2(1H)-one] | < 10 | 1000 to 5000
O=c1cc(-c2ccc3[nH]nc(-c4ccc(OC5CC5)nc4)c3c2)ccn1[C@H](CO)c1cc(F)cc(Br)c1 [Example 118, (S)-1-(1-(3-bromo-5-fluorophenyl)-2-hydroxyethyl)-4-(3-(6-cyclopropoxypyridin-3-yl)-1H-indazol-5-yl)pyridin-2(1H)-one] | < 10 | ≤ 500
Cn1cc(-c2n[nH]c3ccc(-c4ccn([C@H](CO)c5cc(F)cc(Br)c5)c(=O)c4)cc23)ccc1=O [Example 120, (S)-1-(1-(3-bromo-5-fluorophenyl)-2-hydroxyethyl)-4-(3-(1-methyl-6-oxo-1,6-dihydropyridin-3-yl)-1H-indazol-5-yl)pyridin-2(1H)-one] | < 10 | 1000 to 5000
Cn1ccc(-c2n[nH]c3ccc(-c4ccn([C@H](CO)c5cc(F)cc(Br)c5)c(=O)c4)cc23)cc1=O [Example 121, (S)-1-(1-(3-bromo-5-fluorophenyl)-2-hydroxyethyl)-4-(3-(1-methyl-2-oxo-1,2-dihydropyridin-4-yl)-1H-indazol-5-yl)pyridin-2(1H)-one] | < 10 | 1000 to 5000
COc1ccc(-c2n[nH]c3ccc(-c4ccn([C@H](CO)c5cc(F)cc(Br)c5)c(=O)c4)nc23)cn1 [Example 122, (S)-1-(1-(3-bromo-5-fluorophenyl)-2-hydroxyethyl)-4-(3-(6-methoxypyridin-3-yl)-1H-pyrazolo[4,3-b]pyridin-5-yl)pyridin-2(1H)-one] | < 10 | 1000 to 5000
O=c1cc(-c2ccc3[nH]nc(-c4ccc(F)cn4)c3c2)ccn1Cc1ccnc(C(F)(F)F)c1 [Example 123, 4-(3-(5-fluoropyridin-2-yl)-1H-indazol-5-yl)-1-((2-(trifluoromethyl)pyridin-4-yl)methyl)pyridin-2(1H)-one] | 10 to 50 | > 5000
Cc1cc(-c2n[nH]c3ccc(-c4ccn(C(C)c5ccnc(C(F)(F)F)c5)c(=O)c4)cc23)ccn1 (stereo not drawn) [Example 142, 4-(3-(2-methylpyridin-4-yl)-1H-indazol-5-yl)-1-(1-(2-(trifluoromethyl)pyridin-4-yl)ethyl)pyridin-2(1H)-one] | < 10 | ≤ 500
Cc1cc(-c2n[nH]c3ccc(-c4cc(C)n(Cc5ccnc(C(F)(F)F)c5)c(=O)c4)cc23)ccn1 [Example 143, 6-methyl-4-(3-(2-methylpyridin-4-yl)-1H-indazol-5-yl)-1-((2-(trifluoromethyl)pyridin-4-yl)methyl)pyridin-2(1H)-one] | < 10 | 500 to 1000

Further lines, results first:

IC50 (human ERK2) [nM] | IC50 (Colo205 cell line) [nM] | Compound
< 10 | ≤ 500 | COc1ccc(-c2n[nH]c3ccc(-c4ccn([C@H](CO)c5cc(F)cc(Br)c5)c(=O)c4)cc23)cn1 [Example 103, (S)-1-(1-(3-bromo-5-fluorophenyl)-2-hydroxyethyl)-4-(3-(6-methoxypyridin-3-yl)-1H-indazol-5-yl)pyridin-2(1H)-one]
< 10 | ≤ 500 | CNCC(c1ccc(F)c(Cl)c1)n1ccc(-c2ccc3[nH]nc(-c4ccnc(C)c4)c3c2)cc1=O (stereo not drawn) [Example 107, 1-(1-(3-chloro-4-fluorophenyl)-2-(methylamino)ethyl)-4-(3-(2-methylpyridin-4-yl)-1H-indazol-5-yl)pyridin-2(1H)-one]
< 10 | 1000 to 5000 | Cn1cc(-c2n[nH]c3ncc(-c4ccn([C@H](CO)c5ccc(F)c(Cl)c5)c(=O)c4)cc23)cn1 [Example 108, (S)-1-(1-(3-chloro-4-fluorophenyl)-2-hydroxyethyl)-4-(3-(1-methyl-1H-pyrazol-4-yl)-1H-pyrazolo[3,4-b]pyridin-5-yl)pyridin-2(1H)-one]
< 10 | 1000 to 5000 | Cc1cc(-c2n[nH]c3ccc(-c4ccn(Cc5ccnc(C(F)(F)F)c5)c(=O)c4)nc23)ccn1 [Example 112, 4-(3-(2-methylpyridin-4-yl)-1H-pyrazolo[4,3-b]pyridin-5-yl)-1-((2-(trifluoromethyl)pyridin-4-yl)methyl)pyridin-2(1H)-one]
< 10 | ≤ 500 | COc1cc(-c2n[nH]c3ccc(-c4ccn([C@H](CO)c5cc(F)cc(Br)c5)c(=O)c4)cc23)ccn1 [Example 115, (S)-1-(1-(3-bromo-5-fluorophenyl)-2-hydroxyethyl)-4-(3-(2-methoxypyridin-4-yl)-1H-indazol-5-yl)pyridin-2(1H)-one]
< 10 | ≤ 500 | CCOc1cc(-c2n[nH]c3ccc(-c4ccn([C@H](CO)c5cc(F)cc(Br)c5)c(=O)c4)cc23)ccn1 [Example 119, (S)-1-(1-(3-bromo-5-fluorophenyl)-2-hydroxyethyl)-4-(3-(2-ethoxypyridin-4-yl)-1H-indazol-5-yl)pyridin-2(1H)-one]
< 10 | 500 to 1000 | COc1ccc(-c2n[nH]c3cnc(-c4ccn([C@H](CO)c5cc(F)cc(Br)c5)c(=O)c4)cc23)cn1 [Example 124, (S)-1-(1-(3-bromo-5-fluorophenyl)-2-hydroxyethyl)-4-(3-(6-methoxypyridin-3-yl)-1H-pyrazolo[3,4-c]pyridin-5-yl)pyridin-2(1H)-one]
< 10 | 1000 to 5000 | CC(c1cc(F)cc(Br)c1)n1ccc(-c2ccc3[nH]nc([C@H]4CC[C@H](O)CC4)c3c2)cc1=O (stereo partly drawn) [Example 140, 1-(1-(3-bromo-5-fluorophenyl)ethyl)-4-(3-((1r,4r)-4-hydroxycyclohexyl)-1H-indazol-5-yl)pyridin-2(1H)-one]
